{"source": "patent US20050272636A1", "about": "“Treatment and diagnosis of a reproductive disorder by measuring or inhibiting interferon-gamma” (Adelaide Research & Innovation Pty Ltd., priority 2002, published 2005)", "key": {"[1]": {"test_system": "mice", "test": "Effect of IFN-γ treatment on pregnancy outcome in mice (Example 8)", "assay_type": "in vivo", "conditions": "implantation rate, viable versus resorbing fetuses, fetal and placental weight on day 18", "procedure": "Mice are housed under specific pathogen-free conditions at the University of Adelaide Medical School Animal House on a 12:12 light-dark cycle, and administered food and water ad libitum. Adult Balb/c×C57B1/6 F1 females (7-10 weeks old) are synchronised into estrus by caging in close proximity to males. Estrus is identified on the basis of presence of cornified epithelial cells in vaginal smears prepared at 0900-1000 h daily and examined by phase contrast microscopy. On the day of estrus (day 0) females are caged with proven fertile Balb/k males for natural mating. The day of sighting a vaginal plug is nominated day 1 of pregnancy.\nMice are randomly allocated to one of four groups and treated as follows: Group 1 (100 ng IFN-γ) mice receive three intraperitoneal injections of […] recombinant mouse IFN-γ (rmIFN-γ, R&D Systems) in 200 μl PBS containing 1% bovine serum albumin (PBS-BSA) at 1700 h on day 0, at 1000 h on day 1 and 1700hon day 1.\nGroup 2 (250 ng IFN-γ) receive three injections of 250 ng rmIFN-γ according to the same time schedule.\nGroup 3 (control) receive three injections of PBS-BSA instead of IFN-γ according to the same time schedule.\nGroup 4 (comparison) Mice are mated but otherwise remain untreated.\nTwenty mice per group are used to ensure statistical significance in treatment effects.\nAlternatively, a transcervical delivery route for IFN-γ is used. Treatments are delivered directly into the uterine lumen with the aid of a tom-cat catheter (Sovereign, St Louis Mo.). In mated animals this requires removal of vaginal plugs using forceps to allow transcervical access. Mice are randomly allocated to one of four groups and treated as follows: the first group (100 ng IFN-γ) mice receive three transcervical injections of […] recombinant mouse IFN-γ (rmIFN-γ, R&D Systems) in 200 μl PBS containing 1% bovine serum albumin (PBS-BSA) at 1700 h on day 0, at 1000 h on day 1 and 1700 h on day 1. The second group (25 ng IFN-γ) receive three injections of 25 ng rmIFN-γ according to the same time schedule. The third group (control) receive three injections of PBS-BSA instead of IFN-γ according to the same time schedule. For comparison, a fourth group of mice are mated but otherwise would remain untreated. Twenty mice per group are used to ensure statistical significance in treatment effects.\nPregnant females are sacrificed by cervical dislocation at 1000 h -1200 h on day 18 of gestation. The intact uterus of each female is removed and total, viable and resorbing implantation sites counted. Each viable fetus is dissected from the amniotic sac and umbilical cord, and fetuses and placentae weighed. Placental tissues are fixed in paraformaldehyde and processed for histological staining of paraffin sections, using Masson's trichrome stain."}, "[2]": {"test_system": "human cervical epithelial cells", "test": "Effect of IFN-γ and TGFβ on GM-CSF synthesis in human cervical epithelial cells (Example 4)", "assay_type": "cell-based", "conditions": "0.5, 5.0 or 50 ng/ml TGFβ1 + 5.0 ng/ml IFN-γ; dose-responsive; 12 h", "procedure": "Human cervical epithelial cells were cultured using a modification of the technique described by Rheinwald et al., Cell 1975 3: 33143 (1975). Cervical biopsies were obtained from consenting women undergoing hysterectomy for non-malignant gynaecological indications. All the women were pre-menopausal, but no distinction was made regarding the stage of their menstrual cycle at the time of surgery. The cervical biopsies were placed in ice-cold Hank's balanced salt solution for transport to the laboratory, washed twice in antibiotic-containing medium, and incubated overnight at 4° C. in Dulbecco's modified Eagle's medium (DMEM) containing 5 U dispase (Boehringer Mannheim). Large sheets of keratinocytes were mechanically stripped from the biopsy using sterile forceps after a subsequent 1 h incubation at room temperature. Disaggregation into single cells was facilitated by incubation in DMEM/0.25% trypsin/0.05% collagenase for 30 minutes at 37° C., and repeated aspiration using a needle and syringe. […]\nSupernatant was collected 12 hours later and assayed for GM-CSF activity using a commercial human GM-CSF specific ELISA (R & D Systems) according to the manufacturer's instructions. The GM-CSF content of post-treatment supernatants were normalised to the GM-CSF content of corresponding 12 h (baseline) supernatants and expressed as a percentage of control values."}}, "data": [{"substance": "rhTGFβ1: recombinant human transforming growth factor β1 (R&D Systems)", "values": [{"measurement": "effect on the detrimental effects of IFN-γ on pregnancy outcome", "setting": "[1]", "value": "reverses the detrimental effects of IFN-γ"}, {"measurement": "effect of TGFβ on the inhibitory effect of IFN-γ on GM-CSF synthesis", "setting": "[2]", "value": "counteract the inhibitory effect"}]}]}
